Data taken from patent US11306123B2, “Heterotandem bicyclic peptide complex” (BicycleTx Limited, priority 2019, dated 2022).
Where two headings read alike, the source gives them in different places.

Key:
[1] = Pharmacokinetics in SD Rats; type: in vivo, rat
Protocol: 3. Pharmacokinetics of the Nectin-4/CD137 Heterotandem BCY11863 in SD Rats
Male SD Rats were dosed with the Nectin-4/CD137 heterotandem BCY11863 formulated in 25 mM Histidine HCl, 10% sucrose pH 7 by IV bolus, IV infusion (15 minutes) or subcutaneously. Serial bleeding (about 80 μL blood/time point) was performed via submandibular or saphenous vein at each time point. All blood samples were immediately transferred into prechilled microcentrifuge tubes containing 2 μL K2-EDTA (0.5M) as anti-coagulant and placed on wet ice. Blood samples were immediately processed for plasma by centrifugation at approximately 4° C., 3000 g. The precipitant including internal standard was immediately added into the plasma, mixed well and centrifuged at 12,000 rpm, 4° C. for 10 minutes. The supernatant was transferred into pre-labeled polypropylene microcentrifuge tubes, and then quick-frozen over dry ice. The samples were stored at […] or below as needed until analysis. 7.5 μL of the supernatant samples were directly injected for LC-MS/MS analysis using an Orbitrap Q Exactive in positive ion mode to determine the concentrations of analyte. Plasma concentration versus time data were analyzed by non-compartmental approaches using the Phoenix WinNonlin 6.3 software program. C0, CI, Vdss, T½, AUC(0-last), AUC(0-inf), MRT(0-last), MRT(0-inf) and graphs of plasma concentration versus time profile were reported.

human CD137 = molecular target: T1, human CD137 (Homo sapiens, UniProt Q07011); experiment: SPR, biotinylated analogue captured on chip, binding to CD137 extracellular domain
T1 construct: extracellular domain: SPR data
T1 sequence (Q07011 24-186 limits assumed): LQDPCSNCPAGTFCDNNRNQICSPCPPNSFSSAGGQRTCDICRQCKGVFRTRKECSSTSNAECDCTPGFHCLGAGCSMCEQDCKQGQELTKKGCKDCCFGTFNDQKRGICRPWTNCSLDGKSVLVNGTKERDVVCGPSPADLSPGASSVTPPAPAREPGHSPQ

[2] = test system: 5484 full-length human plasma membrane proteins and secreted proteins expressed in HEK293 cells; experiment: Retrogenix cell microarray off-target screening; type: binding; details: 1 μM test peptide
Protocol: Retrogenix microarray screening: Retrogenix's cell microarray technology was used to screen for specific off-target binding interactions of a biotinylated BCY11863 known as BCY13582.
Under these conditions, the test peptide was screened for binding against human HEK293 cells, individually expressing 5484 full-length human plasma membrane proteins and secreted proteins.
Each primary hit was re-expressed, along with two control receptors (TGFBR2 and EGFR), and re-tested with 1 μM BCY13582 test peptide, 1 μM BCY13582 test peptide in the presence of 100 μM BCY11863, and other positive and negative control treatments (FIG. 4). […] These were untethered and tethered forms of Nectin-4, and CD137—the primary targets.

cyno CD137 = molecular target: T2, cyno CD137 (Macaca fascicularis, UniProt A9YYE7); experiment: SPR, biotinylated analogue captured on chip, binding to CD137 extracellular domain
T2 construct: extracellular domain: SPR data
T2 sequence (A9YYE7 24-186): as the sequence (Q07011 24-186 limits assumed) above, with P4L, N19S, R50K, T66I, P67S, F69Y, G75E, V149A counted along it

[3] = in vivo, SD rat plasma, analyte after 100 mg/kg IV BCY11863
[4] = in vivo, SD rat plasma, analyte after 100 mg/kg IV BCY11863, read-out: T1/2 (converted)

Q: What does the source list for `CCCC[C@@H]1NC(=O)[C@H](Cc2ccc(O)cc2)NC(=O)[C@@H]2CCCN2C(=O)[C@H](CC(=O)O)NC(=O)[C@H](C)NC(=O)[C@H](Cc2ccccc2)NC(=O)[C@@H]2CSCCC(=O)N3CN(CN(C3)C(=O)CCSC[C@@H](C(=O)N[C@@H](C)C(N)=O)NC1=O)C(=O)CCSC[C@H](NC(C)=O)C(=O)N[C@@H](CC(C)(C)C)C(=O)N1CCC[C@H]1C(=O)N[C@@H](CCC(=O)O)C(=O)N[C@H](CCCCNC(=O)CCc1cn(CCOCCOCCOCCN(CCOCCOCCOCCC(=O)N[C@H]3CSCCC(=O)N4CN5CN(C4)C(=O)CCSC[C@H](NC(=O)[C@@H](CC(=O)O)NC(=O)[C@H](Cc4cccc6ccccc46)NC(=O)[C@@H]4CCCN4C3=O)C(=O)N[C@@H](CCSC)C(=O)N[C@@H](CCCCNC(=N)N)C(=O)N[C@@H](CC(=O)O)C(=O)N[C@@H](Cc3c[nH]c4ccccc34)C(=O)N[C@@H](CO)C(=O)N[C@@H]([C@@H](C)O)C(=O)N3CCC[C@H]3C(=O)N3C[C@H](O)C[C@H]3C(=O)N[C@@H](Cc3c[nH]c4ccccc34)C(=O)N[C@H](C(N)=O)CSCCC5=O)CCOCCOCCOCCn3cc(CCC(=O)NCCCC[C@H]4NC(=O)[C@H](CCC(=O)O)NC(=O)[C@@H]5CCCN5C(=O)[C@H](CC(C)(C)C)NC(=O)[C@@H](NC(C)=O)CSCCC(=O)N5CN6CN(C5)C(=O)CCSC[C@H](NC(=O)[C@H](Cc5ccc(O)cc5)NC(=O)[C@@H]5CCCN5C4=O)C(=O)N[C@@H](Cc4ccccc4)C(=O)N[C@@H](C)C(=O)N[C@@H](CC(=O)O)C(=O)N4CCC[C@H]4C(=O)N[C@@H](Cc4ccc(O)cc4)C(=O)N[C@@H](CCCC)C(=O)N[C@H](C(=O)N[C@@H](C)C(N)=O)CSCCC6=O)nn3)nn1)C(=O)N1CCC[C@H]1C(=O)N[C@@H](Cc1ccc(O)cc1)C(=O)N2` [BCY11863]?
A: Conversion to BCY14602 ([1]; SD rats, IV 100 mg/kg, first 24 h of the study): No significant conversion to BCY14602; Fraction metabolized to BCY15155 ([1]; SD rats, IV administration, 100 mg/kg): < 1%; AUC [1, 3]: 130000 ng·h/mL; Cmax [1, 3]: 280 µg/mL; half-life [1, 4]: 5.4 h; clearance ([1]; in vivo, SD rat, 100 mg/kg IV BCY11863, read-out: Clp): 13 mL/min/kg; half-life ([1]; rat, in vivo, SD rats, 3.2 mg/kg IV Inf (15 min), read-out: T½ (converted)): 3.1 h; half-life ([1]; rat, in vivo, SD rats, 6.3 mg/kg Sc, read-out: T½ (converted)): 2.5 h

Q: What does the source list for `CCCC[C@@H]1NC(=O)[C@H](Cc2ccc(O)cc2)NC(=O)[C@@H]2CCCN2C(=O)[C@H](CC(=O)O)NC(=O)[C@H](C)NC(=O)[C@H](Cc2ccccc2)NC(=O)[C@@H]2CSCCC(=O)N3CN(CN(C3)C(=O)CCSC[C@@H](C(=O)N[C@@H](C)C(N)=O)NC1=O)C(=O)CCSC[C@H](NC(C)=O)C(=O)N[C@@H](CC(C)(C)C)C(=O)N1CCC[C@H]1C(=O)N[C@@H](CCC(=O)O)C(=O)N[C@H](CCCCNC(=O)CCc1cn(CCOCCOCCOCCN(CCOCCOCCOCCC(=O)N[C@H]3CSCCC(=O)N4CN5CN(C4)C(=O)CCSC[C@H](NC(=O)[C@@H](CC(=O)O)NC(=O)[C@H](Cc4cccc6ccccc46)NC(=O)[C@@H]4CCCN4C3=O)C(=O)N[C@@H](CCSC)C(=O)N[C@@H](CCCCNC(=N)N)C(=O)N[C@@H](CC(=O)O)C(=O)N[C@@H](Cc3c[nH]c4ccccc34)C(=O)N[C@@H](CO)C(=O)N[C@@H]([C@@H](C)O)C(=O)N3CCC[C@H]3C(=O)N3C[C@H](O)C[C@H]3C(=O)N[C@@H](Cc3c[nH]c4ccccc34)C(=O)N[C@H](C(N)=O)CSCCC5=O)CCOCCOCCOCCn3cc(CCC(=O)NCCCC[C@H]4NC(=O)[C@H](CCC(=O)O)NC(=O)[C@@H]5CCCN5C(=O)[C@H](CC(C)(C)C)NC(=O)[C@@H](NC(C)=O)CSCCC(=O)N5CN6CN(C5)C(=O)CCSC[C@H](NC(=O)[C@H](Cc5ccc(O)cc5)NC(=O)[C@@H]5CCCN5C4=O)C(=O)N[C@@H](Cc4ccccc4)C(=O)N[C@@H](C)C(=O)N[C@@H](CC(=O)O)C(=O)N4CCC[C@H]4C(=O)N[C@@H](Cc4ccc(O)cc4)C(=O)N[C@@H](CCCC)C(=O)N[C@H](C(=O)N[C@@H](CCCCNC(=O)CCOCCOCCOCCOCCOCCOCCOCCOCCOCCOCCOCCOCCNC(=O)CCCC[C@@H]4SC[C@@H]5NC(=O)N[C@@H]54)C(N)=O)CSCCC6=O)nn3)nn1)C(=O)N1CCC[C@H]1C(=O)N[C@@H](Cc1ccc(O)cc1)C(=O)N2` [BCY13582]?
A: Kd (human CD137): 8.4 ± 4.2 nM; Specific off-target interactions [2]: No specific off-target interactions were identified; Kd (cyno CD137): 4.23 nM

Q: Which AUC [1, 3] does the source give for `CCCC[C@@H]1NC(=O)[C@H](Cc2ccc(O)cc2)NC(=O)[C@@H]2CCCN2C(=O)[C@H](CC(=O)O)NC(=O)[C@H](C)NC(=O)[C@H](Cc2ccccc2)NC(=O)[C@@H]2CSCCC(=O)N3CN(CN(C3)C(=O)CCSC[C@@H](C(=O)N[C@@H](C)C(N)=O)NC1=O)C(=O)CCSC[C@H](NC(C)=O)C(=O)N[C@@H](CC(C)(C)C)C(=O)N1CCC[C@H]1C(=O)N[C@@H](CCC(=O)O)C(=O)N[C@H](CCCCNC(=O)CCc1cn(CCOCCOCCOCCN(CCOCCOCCOCCC(=O)N[C@H]3CSCCC(=O)N4CN5CN(C4)C(=O)CCSC[C@H](NC(=O)[C@@H](CC(=O)O)NC(=O)[C@H](Cc4cccc6ccccc46)NC(=O)[C@@H]4CCCN4C3=O)C(=O)N[C@@H](CCSC)C(=O)N[C@@H](CCCCNC(=N)N)C(=O)N[C@@H](CC(=O)O)C(=O)N[C@@H](Cc3c[nH]c4ccccc34)C(=O)N[C@@H](CO)C(=O)N[C@@H]([C@@H](C)O)C(=O)N3CCC[C@H]3C(=O)N3C[C@H](O)C[C@H]3C(=O)N[C@@H](Cc3c[nH]c4ccccc34)C(=O)N[C@H](C(N)=O)CSCCC5=O)CCOCCOCCOCCn3cc(CCC(=O)NCCCC[C@H]4NC(=O)[C@H](CCC(=O)O)NC(=O)[C@@H]5CCCN5C(=O)[C@H](CC(C)(C)C)NC(=O)[C@@H](N)CSCCC(=O)N5CN6CN(C5)C(=O)CCSC[C@H](NC(=O)[C@H](Cc5ccc(O)cc5)NC(=O)[C@@H]5CCCN5C4=O)C(=O)N[C@@H](Cc4ccccc4)C(=O)N[C@@H](C)C(=O)N[C@@H](CC(=O)O)C(=O)N4CCC[C@H]4C(=O)N[C@@H](Cc4ccc(O)cc4)C(=O)N[C@@H](CCCC)C(=O)N[C@H](C(=O)N[C@@H](C)C(N)=O)CSCCC6=O)nn3)nn1)C(=O)N1CCC[C@H]1C(=O)N[C@@H](Cc1ccc(O)cc1)C(=O)N2` [BCY15155] here?
A: The AUC was 1300 ng·h/mL.

Q: And the Cmax [1, 3]?
A: The Cmax was 2.85 µg/mL.

Q: What about the half-life [1, 4] of the same molecule?
A: Its half-life is 3.1 h.
